Assay results published in paper PMC4607724, “Discovery and optimisation studies of antimalarial phenotypic hits” (European Journal of Medicinal Chemistry, 2015).

What was measured:
[1] = In vitro cytotoxicity assay in L-6 cells (Alamar Blue); settings: rat
Procedure: (§1) VI. Design and Results of the in vitro & in vivo Studies.
A. Drug inhibition of in vitro cultured P. falciparum parasite:[2] […]
B. In vitro cytotoxicity assay: [2] Assays were performed in 96-well microtiter plates, each well containing 100 µl of RPMI 1640 medium supplemented with 1% L-glutamine (200mM) and 10% fetal bovine serum, and 4 x 10^4 L-6 cells (a primary cell line derived from rat skeletal myoblasts).
Serial drug dilutions of seven 3-fold dilution steps covering a range from 90 to 0.123 µg/mL were prepared. After 72 h of incubation the plates were inspected under an inverted microscope to assure growth of the controls and sterile conditions. 10µL of Alamar Blue was then added to each well and the plates incubated for another 2 h. Then the plates were read with a Spectramax Gemini XS microplatefluorometer (Molecular Devices Cooperation, Sunnyvale, CA, USA) using an excitation wave length of 536 nm and an emission wave length of 588 nm. Data were analysed using the microplate reader software Softmax Pro (Molecular Devices Cooperation, Sunnyvale, CA, USA).

P. falciparum K1 = assay: In vitro activity against erythrocytic stages of P. falciparum, 3H-hypoxanthine incorporation assay; type: cell-based; settings: Plasmodium falciparum; K1 strain (chloroquine and pyrimethamine resistant); means of two independent assays; read-out: P. falc. EC50
Procedure: as §1
A. Drug inhibition of in vitro cultured P. falciparum parasite:[2] All in vitro assays were carried out twice independently in duplicate.In vitro activity against theerythrocytic stages of P. falciparum was determined by using a 3H-hypoxanthine incorporation assay, using the chloroquine and pyrimethamine resistant K1 strain and the standard drugs chloroquine (Sigma C6628) and artemisinin (Arteannuin, Qinghaosu; Sigma 36,159- 3). Compounds were dissolved in DMSO at 10 mg/mL and added to parasite cultures incubated in RPMI 1640 medium without hypoxanthine, supplemented with HEPES (5.94 g/L), NaHCO3 (2.1 g/L), neomycin (100U/mL), AlbumaxR (5 g/L), and washed human red cells A+ at 2.5% haematocrit (0.3% parasitaemia). Serial doubling dilutions of each drug were prepared in 96-well microtiter plates and incubated in a humidified atmosphere at 37 °C; 4% CO 2, 3% O2, 93% N2. After 48 h, 50 µLof 3H-hypoxanthine (= 0.5 µCi) was added to each well of the plate. The plates were incubated for an additional 24 h under the same conditions. The plates were then harvested with a Betaplate cell harvester (Wallac, Zurich, Switzerland), and the red blood cells were transferred onto a glass fiber filter and then washed with distilled water. The dried filters were inserted into a plastic foil with 10 mL of scintillation fluid and were counted in a Betaplate™ liquid scintillation counter (Wallac, Zurich, Switzerland); IC50values were calculated from sigmoidal inhibition curves using Microsoft Excel. […]

[2] = L-6 cells (rat skeletal myoblasts)

| Structure (SMILES) | EC50 at 72 h [1, 2] [µM] | EC50 (P. falciparum K1) [µM] | melting point [°C] | EC50 at 72 h [1] [ng/mL] |
| --- | --- | --- | --- | --- |
| Cc1cc(/C=C2\S/C(=N\c3ccccc3)N(C3CCCCC3)C2=O)c(C)n1-c1ccc(Br)cc1 [Compound 21, (2Z,5Z)-3-Cyclohexyl-5-((1-(4-bromophenyl)-2,5-dimethyl-1H-pyrrol-3-yl)methylene)-2-(phenylimino)thiazolidin-4-one] | > 170 | 0.42 | 243 to 244 |  |
| Cc1cc(/C=C2\S/C(=N\c3ccccc3)N(C3CCCCC3)C2=O)c(C)n1-c1ccccc1 [Compound 22] | > 200 | 0.25 | 198 to 199 |  |
| Cc1cc(/C=C2\S/C(=N\c3ccccc3)N(C3CCCCC3)C2=O)c(C)n1-c1ccc(C(F)(F)F)cc1 [Compound 23] | > 170 | 0.25 | 218 to 220 |  |
| Cc1cc(/C=C2\S/C(=N\c3ccccc3)N(C3CCCCC3)C2=O)c(C)n1-c1cccc(C(F)(F)F)c1 [Compound 24] | > 170 | 1.9 |  |  |
| Cc1cc(/C=C2\S/C(=N\c3ccccc3)N(C3CCCCC3)C2=O)c(C)n1-c1ccccc1C(F)(F)F [Compound 25] | > 170 | 0.78 | 125 to 127 |  |
| Cc1cc(/C=C2\S/C(=N\c3ccccc3)N(C3CCCCC3)C2=O)c(C)n1-c1ccc(N2CCOCC2)cc1 [Compound 26] | > 170 | 0.09 | 155 to 156 |  |
| Cc1cc(/C=C2\S/C(=N\c3ccccc3)N(C3CCCCC3)C2=O)c(C)n1CCN1CCOCC1 [Compound 27] | 71 | 0.61 |  |  |
| O=C1/C(=C/c2ccn(-c3ccccc3C(F)(F)F)c2)S/C(=N\c2ccccc2)N1C1CCCCC1 [Compound 28] | > 180 | 2.3 | 145 to 147 |  |
| O=C1/C(=C/c2ccn(Cc3ccccc3)c2)S/C(=N\c2ccccc2)N1C1CCCCC1 [Compound 29] | > 200 | 1.6 | 68 to 70 |  |
| Cc1cc(/C=C2\S/C(=N\c3ccccc3)N(C3CCCCC3)C2=O)c(C)[nH]1 [Compound 30] | 23 | 3.4 |  |  |
| Cc1cc(/C=C2\S/C(=N\c3ccccc3)N(C3CCCCC3)C2=O)c(C)n1C [Compound 31] | > 230 | 1.9 | 184 to 185 |  |
| O=C1/C(=C/c2cnn(-c3ccccc3C(F)(F)F)c2)S/C(=N\c2ccccc2)N1C1CCCCC1 [Compound 32] | > 180 | 1.9 |  |  |
| Cc1cc(/C=C2\S/C(=N\c3ccccc3)N(C)C2=O)c(C)n1-c1ccccc1 [Compound 33] | > 230 | 2.6 | 203 to 205 |  |
| CC1=CC(/C=C2\S/C(=N\c3ccccc3)N(C)C2=O)=C(C)C1c1ccccc1C(F)(F)F (centres unmarked) [Compound 34] | > 200 | 2.2 |  |  |
| Cc1cc(/C=C2\S/C(=N\c3ccccc3)N(C)C2=O)c(C)n1-c1ccc(N2CCOCC2)cc1 [Compound 35] | 120 | 1.5 | 288 |  |
| Cc1cc(/C=C2\S/C(=N\c3ccccc3)N(C)C2=O)c(C)n1CCN1CCOCC1 [Compound 36] | > 210 | 0.99 |  |  |
| CN1C(=O)/C(=C/c2ccn(Cc3ccccc3)c2)S/C1=N\c1ccccc1 [Compound 37] | > 240 | 3.9 | 155 to 156 |  |
| CN1C(=O)/C(=C/c2cnn(-c3ccccc3C(F)(F)F)c2)S/C1=N\c1ccccc1 [Compound 38] | 180 | 4.6 |  |  |
| C/N=C1\S/C(=C\c2cc(C)n(-c3ccc(N4CCOCC4)cc3)c2C)C(=O)N1C [Compound 39] | > 220 | > 13 | 333 to 334 |  |
| C/N=C1\S/C(=C\c2cc(C)n(CCN3CCOCC3)c2C)C(=O)N1C [Compound 40] | 78 | 5.6 |  |  |
| COc1cc([C@@H]2c3cc4c(cc3[C@H](O)[C@H]3COC(=O)[C@H]23)OCO4)cc(OC)c1OC [podophyllotoxin, reference compound] |  |  |  | 5 |
